Data published in the supplement of paper PMC9663587.

How the values were obtained:
BT20 [1] = test: GRmax, 72 h; higher = less effect;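 further: breast cell lines in 384-well plates, nine doses across a 10^4 range, Dye Drop imaging of viable cells vs DMSO and time-zero plates, GR 0 means no net growth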
BT549 [2] = test: GRmax, 72 h; higher = less effect;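 further: breast cell lines in 384-well plates, nine doses across a 10^4 range, Dye Drop imaging of viable cells vs DMSO and time-zero plates, GR 0 means no net growth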
CAL120 [3] = test: GRmax, 72 h; higher = less effect;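 further: breast cell lines in 384-well plates, nine doses across a 10^4 range, Dye Drop imaging of viable cells vs DMSO and time-zero plates, GR 0 means no net growth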
CAL51 [4] = test: GRmax, 72 h; higher = less effect;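 further: breast cell lines in 384-well plates, nine doses across a 10^4 range, Dye Drop imaging of viable cells vs DMSO and time-zero plates, GR 0 means no net growth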
CAL851 [5] = test: GRmax, 72 h; higher = less effect
CAMA1 [6] = test: GRmax, 72 h; higher = less effect
HCC1143 [7] = test: GRmax, 72 h; higher = less effect
HCC1395 [8] = test: GRmax, 72 h; higher = less effect
HCC1419 [9] = test: GRmax, 72 h; higher = less effect
HCC1428 [10] = test: GRmax, 72 h; higher = less effect
HCC1500 [11] = test: GRmax, 72 h; higher = less effect
HCC1806 [12] = test: GRmax, 72 h; higher = less effect
HCC1937 [13] = test: GRmax, 72 h; higher = less effect
HCC1954 [14] = test: GRmax, 72 h; higher = less effect
HCC38 [15] = test: GRmax, 72 h; higher = less effect
HCC70 [16] = test: GRmax, 72 h; higher = less effect
HS578T [17] = test: GRmax, 72 h; higher = less effect
HTERT_HME1 [18] = test: GRmax, 72 h; higher = less effect
MCF10A [19] = test: GRmax, 72 h; higher = less effect
MCF7 [20] = test: GRmax, 72 h; higher = less effect
MDAMB157 [21] = test: GRmax, 72 h; higher = less effect
MDAMB231 [22] = test: GRmax, 72 h; higher = less effect
MDAMB361 [23] = test: GRmax, 72 h; higher = less effect
MDAMB436 [24] = test: GRmax, 72 h; higher = less effect
MDAMB453 [25] = test: GRmax, 72 h; higher = less effect
MDAMB468 [26] = test: GRmax, 72 h; higher = less effect
PDX1258 [27] = test: GRmax, 72 h; higher = less effect
PDX1328 [28] = test: GRmax, 72 h; higher = less effect
PDXHCI002 [29] = test: GRmax, 72 h; higher = less effect
SKBR3 [30] = test: GRmax, 72 h; higher = less effect
SUM1315 [31] = test: GRmax, 72 h; higher = less effect
SUM149 [32] = test: GRmax, 72 h; higher = less effect
SUM159 [33] = test: GRmax, 72 h; higher = less effect
T47D [34] = test: GRmax, 72 h; higher = less effect
BT20 [35] = test: area over the GR curve, 72 h; higher = more effect;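 further: Dye Drop or Deep Dye Drop imaging of viable cells in 384-well plates (Hoechst nuclei, LIVE/DEAD dye), nine half-log doses, GR normalized to DMSO controls and time-zero plates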
BT549 [36] = test: area over the GR curve, 72 h; higher = more effect;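 further: Dye Drop or Deep Dye Drop imaging of viable cells in 384-well plates (Hoechst nuclei, LIVE/DEAD dye), nine half-log doses, GR normalized to DMSO controls and time-zero plates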
CAL120 [37] = test: area over the GR curve, 72 h; higher = more effect;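 further: Dye Drop or Deep Dye Drop imaging of viable cells in 384-well plates (Hoechst nuclei, LIVE/DEAD dye), nine half-log doses, GR normalized to DMSO controls and time-zero plates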
CAL51 [38] = test: area over the GR curve, 72 h; higher = more effect;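 further: Dye Drop or Deep Dye Drop imaging of viable cells in 384-well plates (Hoechst nuclei, LIVE/DEAD dye), nine half-log doses, GR normalized to DMSO controls and time-zero plates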
CAL851 [39] = test: area over the GR curve, 72 h; higher = more effect
CAMA1 [40] = test: area over the GR curve, 72 h; higher = more effect
HCC1143 [41] = test: area over the GR curve, 72 h; higher = more effect
HCC1395 [42] = test: area over the GR curve, 72 h; higher = more effect
HCC1419 [43] = test: area over the GR curve, 72 h; higher = more effect
HCC1428 [44] = test: area over the GR curve, 72 h; higher = more effect
HCC1500 [45] = test: area over the GR curve, 72 h; higher = more effect
HCC1806 [46] = test: area over the GR curve, 72 h; higher = more effect
HCC1937 [47] = test: area over the GR curve, 72 h; higher = more effect
HCC1954 [48] = test: area over the GR curve, 72 h; higher = more effect
HCC38 [49] = test: area over the GR curve, 72 h; higher = more effect
HCC70 [50] = test: area over the GR curve, 72 h; higher = more effect
HS578T [51] = test: area over the GR curve, 72 h; higher = more effect
HTERT_HME1 [52] = test: area over the GR curve, 72 h; higher = more effect
MCF10A [53] = test: area over the GR curve, 72 h; higher = more effect
MCF7 [54] = test: area over the GR curve, 72 h; higher = more effect
MDAMB157 [55] = test: area over the GR curve, 72 h; higher = more effect
MDAMB231 [56] = test: area over the GR curve, 72 h; higher = more effect
MDAMB361 [57] = test: area over the GR curve, 72 h; higher = more effect
MDAMB436 [58] = test: area over the GR curve, 72 h; higher = more effect
MDAMB453 [59] = test: area over the GR curve, 72 h; higher = more effect
MDAMB468 [60] = test: area over the GR curve, 72 h; higher = more effect
PDX1258 [61] = test: area over the GR curve, 72 h; higher = more effect
PDX1328 [62] = test: area over the GR curve, 72 h; higher = more effect
PDXHCI002 [63] = test: area over the GR curve, 72 h; higher = more effect
SKBR3 [64] = test: area over the GR curve, 72 h; higher = more effect
SUM1315 [65] = test: area over the GR curve, 72 h; higher = more effect
SUM149 [66] = test: area over the GR curve, 72 h; higher = more effect
SUM159 [67] = test: area over the GR curve, 72 h; higher = more effect
T47D [68] = test: area over the GR curve, 72 h; higher = more effect

SMILES: COc1cc([C@@H]2c3cc4c(cc3[C@@H](O[C@@H]3O[C@@H]5CO[C@@H](C)O[C@H]5[C@H](O)[C@H]3O)[C@H]3COC(=O)[C@H]23)OCO4)cc(OC)c1O [Etoposide] (max 10 µM)
- GRmax, 72 h (BT20 [1]): -0.383 GR
- GRmax, 72 h (BT549 [2]): -0.195 GR
- GRmax, 72 h (CAL120 [3]): -0.166 GR
- GRmax, 72 h (CAL51 [4]): -0.21 GR
- GRmax, 72 h (CAL851 [5]): -0.241 GR
- GRmax, 72 h (CAMA1 [6]): -0.448 GR
- GRmax, 72 h (HCC1143 [7]): -0.166 GR
- GRmax, 72 h (HCC1395 [8]): -0.225 GR
- GRmax, 72 h (HCC1419 [9]): 0.0317 GR
- GRmax, 72 h (HCC1428 [10]): -0.032 GR
- GRmax, 72 h (HCC1500 [11]): -0.0766 GR
- GRmax, 72 h (HCC1806 [12]): -0.563 GR
- GRmax, 72 h (HCC1937 [13]): -0.118 GR
- GRmax, 72 h (HCC1954 [14]): -0.265 GR
- GRmax, 72 h (HCC38 [15]): -0.424 GR
- GRmax, 72 h (HCC70 [16]): -0.152 GR
- GRmax, 72 h (HS578T [17]): -0.136 GR
- GRmax, 72 h (HTERT_HME1 [18]): -0.384 GR
- GRmax, 72 h (MCF10A [19]): -0.0699 GR
- GRmax, 72 h (MCF7 [20]): -0.0441 GR
- GRmax, 72 h (MDAMB157 [21]): -0.434 GR
- GRmax, 72 h (MDAMB231 [22]): 0.12 GR
- GRmax, 72 h (MDAMB361 [23]): -0.517 GR
- GRmax, 72 h (MDAMB436 [24]): -0.157 GR
- GRmax, 72 h (MDAMB453 [25]): -0.0601 GR
- GRmax, 72 h (MDAMB468 [26]): -0.513 GR
- GRmax, 72 h (PDX1258 [27]): -0.181 GR
- GRmax, 72 h (PDX1328 [28]): -0.281 GR
- GRmax, 72 h (PDXHCI002 [29]): -0.179 GR
- GRmax, 72 h (SKBR3 [30]): -0.317 GR
- GRmax, 72 h (SUM1315 [31]): 0.0416 GR
- GRmax, 72 h (SUM149 [32]): -0.196 GR
- GRmax, 72 h (SUM159 [33]): -0.279 GR
- GRmax, 72 h (T47D [34]): -0.186 GR
- area over the GR curve (BT20 [35]): 0.459 GR
- area over the GR curve (BT549 [36]): 0.473 GR
- area over the GR curve (CAL120 [37]): 0.381 GR
- area over the GR curve (CAL51 [38]): 0.467 GR
- area over the GR curve (CAL851 [39]): 0.406 GR
- area over the GR curve (CAMA1 [40]): 0.571 GR
- area over the GR curve (HCC1143 [41]): 0.384 GR
- area over the GR curve (HCC1395 [42]): 0.389 GR
- area over the GR curve (HCC1419 [43]): 0.32 GR
- area over the GR curve (HCC1428 [44]): 0.39 GR
- area over the GR curve (HCC1500 [45]): 0.218 GR
- area over the GR curve (HCC1806 [46]): 0.648 GR
- area over the GR curve (HCC1937 [47]): 0.393 GR
- area over the GR curve (HCC1954 [48]): 0.501 GR
- area over the GR curve (HCC38 [49]): 0.449 GR
- area over the GR curve (HCC70 [50]): 0.454 GR
- area over the GR curve (HS578T [51]): 0.377 GR
- area over the GR curve (HTERT_HME1 [52]): 0.542 GR
- area over the GR curve (MCF10A [53]): 0.415 GR
- area over the GR curve (MCF7 [54]): 0.499 GR
- area over the GR curve (MDAMB157 [55]): 0.609 GR
- area over the GR curve (MDAMB231 [56]): 0.298 GR
- area over the GR curve (MDAMB361 [57]): 0.343 GR
- area over the GR curve (MDAMB436 [58]): 0.434 GR
- area over the GR curve (MDAMB453 [59]): 0.362 GR
- area over the GR curve (MDAMB468 [60]): 0.429 GR
- area over the GR curve (PDX1258 [61]): 0.394 GR
- area over the GR curve (PDX1328 [62]): 0.35 GR
- area over the GR curve (PDXHCI002 [63]): 0.488 GR
- area over the GR curve (SKBR3 [64]): 0.403 GR
- area over the GR curve (SUM1315 [65]): 0.381 GR
- area over the GR curve (SUM149 [66]): 0.527 GR
- area over the GR curve (SUM159 [67]): 0.413 GR
- area over the GR curve (T47D [68]): 0.666 GR
